Measurements from patent publication US7030123B2, “Indole derivatives with vascular damaging activity” (AstraZeneca AB, priority 2000, dated 2006).
Each block holds one compound with its values, some of them ahead of it.

Assays:
[1] = Dark et al 1997 Cancer Research 57, 1829-1834; cited from earlier work
[2] = system: colchicine binding site on tubulin (purified tubulin protein from bovine brain); assay: Colchicine binding site competitive assay; settings: dose of compound of 10 μM; relative to DMSO negative control
Method: (i) Colchicine Binding Site Competitive Assay Kit.
The ability of a ligand to bind specifically to the coichicine binding site on tubulin, an indicator of the vascular damaging activity, was assessed using a size exclusion chromatography assay kit from “Cytoskeleton” (1650 Fillmore St. #240, Denver, Colo. 80206, U.S.A.) Catalogue number of kit: BK023.
The following reagents were used: • tubulin buffer, to give 0.1 mM GTP, 0.5 mM MgCl2, 0.5 mM EGTA, 40 mM PIPES buffer at pH6.9 in the final reaction mix; • purified tubulin protein from bovine brain at 1 mg/ml in tubulin buffer; • 0.02 mM fluorescent coichicine in tubulin buffer [FITC (fluorescein isothiocyanate)-labelled]; • 2 mM colchicine in tubulin buffer; • 0.2 mM vinblastine in tubulin buffer; and • G-25 Sephadex™ Fine-particle size 34-138 μm.
The reaction was performed as follows: • 8 μl of test compound (dissolved in DMSO) was gently mixed with 150 μl of tubulin. This was then incubated at 37° C. for 30 minutes. […]
Chromatography was performed as follows, using chromatography columns filled with 3 mls of G-25 Sephadex™ Fine slurry. […] The fluorescence of the tubulin-containing fractions was detected on a spectrophotometer which excites at 485 nm and emits at 535 nm. […]
The degree of competition of colchicine binding by either unlabelled colchicine or test compound was calculated relative to the DMSO negative control.

[3] = system: HUVECs (Human umbilical cord vein endothelial cells); assay: HUVEC detachment assay; format: cell-based; settings: for activity in the HUVEC cell detachment assay (detachment): dose of compound of 100 μM, 40 minutes, versus undosed control wells
From the text: (ii) HUVEC Detachment Assay
Compounds according to the invention are expected to be able to damage vasculature, such as tumour vasculature, that has been newly formed whilst leaving normal, mature vasculature unaffected. The identification of compounds which can selectively, and preferably potently, damage newly-formed vasculature is desirable and is the subject of the present invention. The ability of the compounds to act in this way may be assessed, for example, using the procedure set out below:
This assay examined the effects of compounds on the adherence of HUVECs (Human umbilical cord vein endothelial cells) to tissue culture plasticware.
HUVECs (supplied by TCS Biologicals Ltd, Buckingham, United Kingdom) were plated in 0.2% gelatin-coated 12 well tissue culture plates at a concentration of 3×10^4 cells per well in 1 ml TCS medium. After 24 hours, when the cells were at ˜30% confluency, they were dosed with a compound under test for 40 minutes at 37° C., 5% CO2. After this incubation the medium containing drug was pipetted off, and the cells were then gently washed in 2 mls of HBSS (Hanks' Balanced Salt Solution purchased from Life Technologies Ltd, Paisley UK; Catalogue # 24020-083) to remove any detached cells. The washing solution was then removed, and the adherent cells remaining were trypsinised using 300 μl of 1×Trypsin-EDTA solution (Life Technologies Ltd, Paisley, UK; Catalogue # 43500-019) at ambient temperature for 2 minutes. The trypsinised cells were then made up to 1 ml with TCS Biologicals medium, then centrifuged at 2000 rpm for 2 minutes. The cell pellet was then resuspended in a volume of 50 μl of TCS Biologicals medium. Total cell counts were obtained by counting the cells on a haemocytometer. The amount of cell detachment was calculated by comparing the number of cells remaining attached following treatment with the number in undosed control wells.

activity in the colchicine binding site competitive assay (competition) [2]: 36%
melting point: 241 to 242 °C
SMILES: N#Cc1c(N)[nH]c2ccc(Sc3ccc(O)cc3)cc12 [Example 2, 5-(4-Hydroxyphenylsulphanyl)-2-amino-1H-indole-3-carbonitrile]
activity in the HUVEC cell detachment assay (detachment) [3]: 55%

melting point: 169 to 173 °C
SMILES: COc1ccc(Sc2ccc3[nH]c(N)c(C#N)c3c2)cc1OC [Example 3, 5-(3,4-Dimethoxyphenylsulphanyl)-2-amino-1H-indole-3-carbonitrile]

melting point: 208 to 209 °C
SMILES: COc1cc(Oc2ccc3[nH]c(N)c(C#N)c3c2)cc(OC)c1OC [Example 11, 5-(3,4,5-Trimethoxyphenoxy)-2-amino-1H-indole-3-carbonitrile]

The next lines start with the compound.

SMILES: COc1ccc(/C=C\c2cc(OC)c(OC)c(OC)c2)cc1O [Combretastatin A4]
anti-vascular effects at doses below the MTD [1]: greater than 10 times less than the MTD

SMILES: Cc1cc2[nH]c(N)c(C#N)c2cc1F [Example 8, 6-methyl-5-fluoro-2-amino-1H-indole-3-carbonitrile]
activity in the colchicine binding site competitive assay (competition) [2]: 31%
activity in the HUVEC cell detachment assay (detachment) [3]: 34%

SMILES: COc1ccc(Oc2ccc3[nH]c(N)c(C#N)c3c2)cc1 [Example 9, 5-(4-Methoxyphenoxy)-2-amino-1H-indole-3-carbonitrile]
melting point: 216 to 217 °C

SMILES: CC(=O)O[C@H]1C(=O)[C@@]2(C)[C@H]([C@H](OC(=O)c3ccccc3)[C@]3(O)C[C@H](OC(=O)[C@H](O)[C@@H](NC(=O)c4ccccc4)c4ccccc4)C(C)=C1C3(C)C)[C@]1(OC(C)=O)CO[C@@H]1C[C@@H]2O [Taxol, reference compound]
cell detachment in the HUVEC detachment assay [3]: does not cause cell detachment

SMILES: COc1cc2c(c(OC)c1OC)-c1ccc(OC)c(=O)cc1[C@@H](NC(C)=O)CC2 [colchicine]
doses at which vascular damaging activity is elicited, relative to the maximum tolerated dose (MTD) [1]: only elicit vascular damaging activity at doses approaching the maximum tolerated dose

SMILES: CC[C@]1(O)C[C@H]2CN(CCc3c([nH]c4ccccc34)[C@@](C(=O)OC)(c3cc4c(cc3OC)N(C=O)[C@H]3[C@@](O)(C(=O)OC)[C@H](OC(C)=O)[C@]5(CC)C=CCN6CC[C@]43[C@@H]65)C2)C1 [vincristine]
doses at which vascular damaging activity is elicited, relative to the maximum tolerated dose (MTD) [1]: only elicit vascular damaging activity at doses approaching the maximum tolerated dose
